One data set concerns the target T1, human glycogen phosphorylase a (Homo sapiens, UniProt P06737).
T1 sequence (P06737 1-847): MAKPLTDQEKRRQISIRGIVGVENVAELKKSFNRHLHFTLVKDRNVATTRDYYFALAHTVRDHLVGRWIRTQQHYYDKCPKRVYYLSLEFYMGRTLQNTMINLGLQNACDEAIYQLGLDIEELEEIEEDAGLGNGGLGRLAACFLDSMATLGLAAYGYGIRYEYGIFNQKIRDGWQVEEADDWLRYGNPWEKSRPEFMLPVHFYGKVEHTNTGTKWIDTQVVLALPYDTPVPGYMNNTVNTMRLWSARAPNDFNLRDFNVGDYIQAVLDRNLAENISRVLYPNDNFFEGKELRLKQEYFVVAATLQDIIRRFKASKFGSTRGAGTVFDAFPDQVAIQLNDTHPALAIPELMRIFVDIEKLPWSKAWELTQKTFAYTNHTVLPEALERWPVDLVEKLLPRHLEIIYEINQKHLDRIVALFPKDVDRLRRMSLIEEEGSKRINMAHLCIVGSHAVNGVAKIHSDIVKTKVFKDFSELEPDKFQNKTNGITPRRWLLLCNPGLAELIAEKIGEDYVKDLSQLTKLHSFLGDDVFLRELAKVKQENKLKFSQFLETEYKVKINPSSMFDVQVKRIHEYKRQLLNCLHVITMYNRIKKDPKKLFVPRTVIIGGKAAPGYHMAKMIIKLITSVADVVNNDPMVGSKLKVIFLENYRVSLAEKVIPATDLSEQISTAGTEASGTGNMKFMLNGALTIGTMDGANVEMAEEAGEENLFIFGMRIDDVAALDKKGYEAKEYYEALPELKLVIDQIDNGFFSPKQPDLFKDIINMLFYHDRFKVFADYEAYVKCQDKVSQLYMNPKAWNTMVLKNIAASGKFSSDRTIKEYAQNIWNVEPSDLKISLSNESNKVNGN
The experiment in a line: Glycogen phosphorylase a activity test. Type of data set: biochemical. Conditions: inhibition of GPa in vitro, reverse direction (glycogen synthesis from glucose 1-phosphate, release of inorganic phosphate). The method, then: Glycogen Phosphorylase a Activity Test
The effect of compounds on the activity of the active form of glycogen phosphorylase (GPa) was measured in the reverse direction by monitoring the synthesis of glycogen from glucose 1-phosphate by determining the release of inorganic phosphate. All reactions were carried out as duplicate determinations in 96-well microtiter plates (half area plates, Costar No. 3696), and the change in absorption as a consequence of the formation of the reaction product was measured at the wavelength specified below in a Multiskan Ascent Elisa Reader (Lab Systems, Finland). In order to measure the GPa enzyme activity in the reverse direction, the conversion of glucose 1-phosphate to glycogen and inorganic phosphate was measured by the general method of Engers et al. (Engers H D, Shechosky S, Madsen N B, Can J Biochem 1970 July; 48(7):746-754) with the following modifications: human glycogen phosphorylase a (for example containing 0.76 mg of protein/ml (Aventis Pharma Deutschland GmbH), dissolved in buffer solution E (25 mM β-glycerophosphate, pH 7.0, 1 mM EDTA and 1 mM dithiothreitol) was diluted to a concentration of 10 μg of protein/ml with buffer T (50 mM Hepes, pH 7.0, 100 mM KCI, 2.5 mM EDTA, 2.5 mM MgCl2·6H2O) and addition of 5 mg/ml of glycogen. Test substances were prepared as a 10 mM solution in DMSO and diluted to 50 μM with buffer solution T. To 10 μl of this solution were added 10 μl of 37.5 mM glucose dissolved in buffer solution T and 5 mg/ml of glycogen, and also 10 μl of a solution of human glycogen phosphorylase a (10 μg of protein/ml) and 20 μl of 2.5 mM glucose 1-phosphate. The base value of the activity of glycogen phosphorylase a in the absence of test substance was determined by adding 10 μl of buffer solution T (0.1% DMSO). The mixture was incubated at room temperature for 40 minutes and the released inorganic phosphate was determined by means of the general method of Drueckes et al. (Drueckes P, Schinzel R, Palm D, Anal Biochem 1995 September 1;230(1):173-177) with the following modifications: 50 μl of a stop solution of 7.3 mM of ammonium molybdate, 10.9 mM of zinc acetate, 3.6% of ascorbic acid, 0.9% of SDS are added to 50 μl of the enzyme mixture. After 60 minutes of incubation at 45° C., the absorption was measured at 820 nm. To determine the background absorption, the stop solution was added immediately after the addition of the glucose 1-phosphate solution in a separate reaction. […]
As for `O=C(NC(=O)c1ccc(F)cc1Cl)Nc1cccnc1N1CCC(C(=O)O)CC1` [Example 1, 3′-[3-(2-Chloro-4-fluorobenzoyl)ureido]-3,4,5,6-tetrahydro-2H-[1,2′]bipyridinyl-4-carboxylic acid], the IC50 (in general, the point on the concentration scale where inhibition reaches its midpoint) is 40 nM. Compound `O=C(NC(=O)c1cc(F)c(F)cc1Cl)Nc1cccnc1N1CCC(C(=O)O)CC1` [Example 2, 3+-[3-(2-Chloro-4,5-difluorobenzoyl)ureido]-3,4,5,6-tetrahydro-2H-[1,2′]bipyridinyl-4-carboxylic acid] returned an IC50 of 10 nM.

For the compound `NC(=O)C1CCN(c2ncccc2NC(=O)NC(=O)c2cc(F)c(F)cc2Cl)CC1` [Example 4, 3′-[3-(2-Chloro-4,5-difluorobenzoyl)ureido]-3,4,5,6-tetrahydro-2H-[1,2′]bipyridinyl-4-carboxamide], the IC50 was determined as 160 nM. On the same count and under the same terms, the value for `O=C(NC(=O)c1cc(F)c(F)cc1Cl)Nc1cccnc1N1CCC(C(=O)NCCO)CC1` [Example 5, N-(2-hydroxyethyl)-3′-[3-(2-chloro-4,5-difluorobenzoyl)ureido]-3,4,5,6-tetrahydro-2H-[1,2′]bipyridinyl-4-carboxamide] was 3650 nM.

Tested on in a further data set: not given
Experiment: not given
Conditions: not given
As for `COC(=O)C1CCN(c2ncccc2NC(=O)NC(=O)c2cc(F)c(F)cc2Cl)CC1` [Example 3, Methyl 3′-[3-(2-chloro-4,5-difluorobenzoyl)ureido]-3,4,5,6-tetrahydro-2H-[1,2′]bipyridinyl-4-carboxylate], the melting point (usually the temperature, or range, at which the solid turns liquid) stood at 195.9 °C. Same read-out and setting: with `O=C(NC(=O)c1cc(F)c(F)cc1Cl)Nc1cccnc1N1CCC(C(=O)O)(c2ccccc2)CC1` [Example 6, 3′-[3-(2-Chloro-4,5-difluorobenzoyl)ureido]-4-phenyl-3,4,5,6-tetrahydro-2H-[1,2′]bipyridinyl-4-carboxylic acid] the figure was 250.9 °C.

Source of the values: patent publication US7501440B2, “Substituted benzoylureidopyridylpiperidine-and-pyrrolidinecarboxylic acid derivatives, processes for preparing them and their use” (Sanofi-Aventis Deutschland GmbH, priority 2003, dated 2009).
